Experiment [1] deals with Jurkat cells. Kind of experiment: Cellular uptake assay by flow cytometry. It counts as cell-based. To be noted: 5, 12.5, 25 μM, pH 7.2 PBS, 5 min, 23° C. How it is done:
Dansyl-tagged oligomers and octaarginine control were brought up in pH 7.2 PBS buffer at 5 μM, 12.5 μM, and 25 μM concentrations. […] Cells were plated on a microtiter plate at 3.0×10^6 cells/mL with 200 μL/well. The plate was centrifuged (1300 rpm for 3 min), media removed, and cells resuspended in PBS buffer twice.
Compounds 6(a-c) and the r8 control at varying concentrations were incubated with the cells for 5 minutes at 23° C. The microtiter plates were centrifuged and the cells were isolated, washed with PBS and resuspended in PBS containing propidium iodide (3 μg/mL, 0.01%). The cells were analyzed using a fluorescent flow cytometer (Vantoo, Stanford University) equipped with a UV laser for excitation of the dansyl fluorophore, and cells stained with propidium iodide were excluded from the analysis. The data presented are the mean fluorescent signals for the 20,000 cells analyzed.

Experiment [2] concerns Jurkat cells. Kind of experiment: MTT toxicity assay. To be noted: Homo sapiens, 24 h with compound at 37° C., then 24 h fresh media. It counts as cell-based. As for the experimental part:
Jurkat cells grown in 10% FBS in RPMI media 1640 (+ glutamine) were plated at 5-10×10^4 cells/mL on a 96-well microtiter plate in the same media. In a second 96-well plate, compound was serially diluted in triplicate over 20 wells in columns 2-11 and rows 1-3 and 5-7; typical dilutions spanned the concentration range of 400 μM to 20 nM. Columns 1 and 12 contained no cells and no compound, respectively. Rows 4 and 8 contained a serial dilution of colchicine as internal control; colchicine concentrations were generally much lower than compound concentrations in order to obtain an EC50 (half-maximal effective concentration).
Compounds were added to the plate containing cells and the cells were incubated at 37° C. for 24 h, at which point the plate was centrifuged, compound removed, and the cells resuspended in fresh media. […] Cells were incubated with MTT for 3 hours at 37° C., 150 μL solubilizing solution (10% triton X-100, 90% 0.1N HCl in isopropanol) was added to each well, and colorimetry data obtained on a plate reader.
Numerical data from plate reader was standardized using values from columns 1 and 12 and curve fitting was performed using Graph Pad Prism software to obtain an EC50 for each compound.

These results are taken from patent publication US7939621B2, “Oligocarbonate molecular transporters” (International Business Machines Corporation, priority 2009, dated 2011).

Turning to `CN(C)c1cccc2c(S(=O)(=O)NCCO)cccc12` [Compound 4, 5-(dimethylamino)-N-(2-hydroxyethyl)naphthalene-1-sulfonamide, reference compound], the “Cellular uptake into Jurkat cells” value in the experiment on Jurkat cells [1] is on record as “does not enter Jurkat cells”. Moreover, in the experiment on Jurkat cells [2], the EC50 worked out at 311 µM.
